Data as given in the NIST ThermoML archive (doi:10.1016/j.fluid.2006.01.030).
Numbers after ± are expanded uncertainties.

Test: xn = mol fraction of the nth substance listed
Conditions: Liquid

CCCCCCC [heptane] + CCO
viscosity [mPa·s]
Conditions | x2 = 0 | x2 = 0.125 | x2 = 0.25 | x2 = 0.375 | x2 = 0.5 | x2 = 0.625 | x2 = 0.75 | x2 = 0.875
293.15 K, 100 kPa, Capillary tube (Ostwald / Ubbelohde) method | 0.41 ± 0.009 | 0.419 ± 0.009 | 0.45 ± 0.01 | 0.494 ± 0.01 | 0.556 ± 0.012 | 0.644 ± 0.014 | 0.757 ± 0.016 | 0.931 ± 0.02
293.15 K, 20000 kPa, Falling or rolling sphere viscometry | 0.509 ± 0.021 | 0.518 ± 0.022 | 0.547 ± 0.023 | 0.597 ± 0.025 | 0.668 ± 0.028 | 0.76 ± 0.033 | 0.885 ± 0.038 | 1.052 ± 0.046
293.15 K, 40000 kPa, Falling or rolling sphere viscometry | 0.604 ± 0.025 | 0.614 ± 0.026 | 0.648 ± 0.027 | 0.707 ± 0.03 | 0.787 ± 0.033 | 0.888 ± 0.038 | 1.023 ± 0.044 | 1.2 ± 0.052
293.15 K, 60000 kPa, Falling or rolling sphere viscometry | 0.706 ± 0.03 | 0.718 ± 0.03 | 0.757 ± 0.032 | 0.824 ± 0.035 | 0.913 ± 0.039 | 1.022 ± 0.044 | 1.168 ± 0.05 | 1.354 ± 0.058
293.15 K, 80000 kPa, Falling or rolling sphere viscometry | 0.817 ± 0.034 | 0.832 ± 0.035 | 0.875 ± 0.037 | 0.951 ± 0.04 | 1.047 ± 0.044 | 1.162 ± 0.05 | 1.316 ± 0.056 | 1.509 ± 0.065
293.15 K, 100000 kPa, Falling or rolling sphere viscometry | 0.937 ± 0.039 | 0.953 ± 0.04 | 1.003 ± 0.042 | 1.087 ± 0.046 | 1.191 ± 0.051 | 1.312 ± 0.056 | 1.473 ± 0.063 | 1.674 ± 0.072
313.15 K, 100 kPa, Capillary tube (Ostwald / Ubbelohde) method | 0.333 ± 0.007 | 0.336 ± 0.007 | 0.354 ± 0.008 | 0.383 ± 0.008 | 0.421 ± 0.009 | 0.475 ± 0.01 | 0.55 ± 0.012 | 0.66 ± 0.014
313.15 K, 20000 kPa, Falling or rolling sphere viscometry | 0.408 ± 0.017 | 0.413 ± 0.017 | 0.429 ± 0.018 | 0.464 ± 0.02 | 0.508 ± 0.022 | 0.567 ± 0.024 | 0.65 ± 0.028 | 0.766 ± 0.033
313.15 K, 40000 kPa, Falling or rolling sphere viscometry | 0.487 ± 0.02 | 0.495 ± 0.021 | 0.513 ± 0.022 | 0.553 ± 0.024 | 0.602 ± 0.026 | 0.666 ± 0.029 | 0.756 ± 0.033 | 0.877 ± 0.038
313.15 K, 60000 kPa, Falling or rolling sphere viscometry | 0.57 ± 0.024 | 0.579 ± 0.024 | 0.599 ± 0.025 | 0.644 ± 0.027 | 0.699 ± 0.03 | 0.768 ± 0.033 | 0.864 ± 0.037 | 0.989 ± 0.043
313.15 K, 80000 kPa, Falling or rolling sphere viscometry | 0.658 ± 0.028 | 0.666 ± 0.028 | 0.69 ± 0.029 | 0.739 ± 0.031 | 0.8 ± 0.034 | 0.874 ± 0.038 | 0.974 ± 0.042 | 1.102 ± 0.048
313.15 K, 100000 kPa, Falling or rolling sphere viscometry | 0.751 ± 0.032 | 0.758 ± 0.032 | 0.786 ± 0.033 | 0.838 ± 0.036 | 0.906 ± 0.039 | 0.984 ± 0.042 | 1.088 ± 0.047 | 1.217 ± 0.053
333.15 K, 100 kPa, Capillary tube (Ostwald / Ubbelohde) method | 0.276 ± 0.006 | 0.274 ± 0.006 | 0.282 ± 0.006 | 0.299 ± 0.006 | 0.325 ± 0.007 | 0.361 ± 0.008 | 0.409 ± 0.009 | 0.484 ± 0.01
333.15 K, 20000 kPa, Falling or rolling sphere viscometry | 0.336 ± 0.014 | 0.332 ± 0.014 | 0.344 ± 0.014 | 0.364 ± 0.015 | 0.393 ± 0.017 | 0.435 ± 0.019 | 0.489 ± 0.021 | 0.565 ± 0.025
333.15 K, 40000 kPa, Falling or rolling sphere viscometry | 0.402 ± 0.017 | 0.4 ± 0.017 | 0.414 ± 0.017 | 0.436 ± 0.018 | 0.469 ± 0.02 | 0.515 ± 0.022 | 0.571 ± 0.025 | 0.651 ± 0.028
333.15 K, 60000 kPa, Falling or rolling sphere viscometry | 0.472 ± 0.02 | 0.471 ± 0.02 | 0.486 ± 0.02 | 0.511 ± 0.022 | 0.546 ± 0.023 | 0.595 ± 0.025 | 0.653 ± 0.028 | 0.734 ± 0.032
333.15 K, 80000 kPa, Falling or rolling sphere viscometry | 0.546 ± 0.023 | 0.544 ± 0.023 | 0.56 ± 0.024 | 0.589 ± 0.025 | 0.623 ± 0.026 | 0.677 ± 0.029 | 0.735 ± 0.032 | 0.816 ± 0.035
333.15 K, 100000 kPa, Falling or rolling sphere viscometry | 0.623 ± 0.026 | 0.621 ± 0.026 | 0.636 ± 0.027 | 0.67 ± 0.028 | 0.703 ± 0.03 | 0.761 ± 0.032 | 0.818 ± 0.035 | 0.898 ± 0.039
353.15 K, 100 kPa, Capillary tube (Ostwald / Ubbelohde) method | 0.232 ± 0.005 | – | – | – | – | – | – | –
353.15 K, 20000 kPa, Falling or rolling sphere viscometry | 0.289 ± 0.012 | 0.282 ± 0.012 | 0.286 ± 0.012 | 0.298 ± 0.013 | 0.316 ± 0.013 | 0.341 ± 0.015 | 0.374 ± 0.016 | 0.423 ± 0.018
353.15 K, 40000 kPa, Falling or rolling sphere viscometry | 0.346 ± 0.014 | 0.337 ± 0.014 | 0.343 ± 0.014 | 0.357 ± 0.015 | 0.376 ± 0.016 | 0.403 ± 0.017 | 0.437 ± 0.019 | 0.49 ± 0.021
353.15 K, 60000 kPa, Falling or rolling sphere viscometry | 0.401 ± 0.017 | 0.394 ± 0.016 | 0.401 ± 0.017 | 0.412 ± 0.017 | 0.434 ± 0.018 | 0.464 ± 0.02 | 0.501 ± 0.022 | 0.556 ± 0.024
353.15 K, 80000 kPa, Falling or rolling sphere viscometry | 0.458 ± 0.019 | 0.45 ± 0.019 | 0.458 ± 0.019 | 0.475 ± 0.02 | 0.499 ± 0.021 | 0.53 ± 0.023 | 0.565 ± 0.024 | 0.622 ± 0.027
353.15 K, 100000 kPa, Falling or rolling sphere viscometry | 0.521 ± 0.022 | 0.513 ± 0.022 | 0.522 ± 0.022 | 0.539 ± 0.023 | 0.565 ± 0.024 | 0.599 ± 0.026 | 0.631 ± 0.027 | 0.69 ± 0.03
